Assay results reported in patent US9862712B2, “Benzimidazole based EGFR inhibitors” (COUNCIL OF SCIENTIFIC & INDUSTRIAL RESEARCH, priority 2014, dated 2018).

Tests used:
[1] = test system: A549 Cell line (Lung Cancer Cell line); experiment: MTT cell proliferation assay, A549 Cell line; format: cell-based, human; conditions: Homo sapiens, 72 h, MTT; for viability at 0.01 µM: A549, 0.01 μM; for viability at 0.1 µM: A549, 0.1 μM; for viability at 2.5 µM: A549, 2.5 μM; for viability at 5 µM: A549, 5 μM; for viability at 10 µM: A549, 10 μM
Method: (§1) 1. Protocol Followed for Anti Cancer Activity and Results, Cell Proliferation Assays: Cell lines used herein were purchased from NCCS (National Center for Cell Sciences) Pune, India. Invitro Activity was performed in NCL (National Chemical Laboratory) Pune. Each cell line was plated in 96-well microtiter plates (10,000 cells per well), and serial dilutions of indicated compounds were added. At the end of the incubation period (72 h at 37° C.), cell viability was determined by a tetrazolium dye, MTT (3-(4,5-dimethylthiazol-2-yl)-2,5-diphenyl tetrazolium bromide) (Promega, USA). The formazan crystals were dissolved in DMSO, and the absorbance at 600 nm was recorded using an ELISA plate reader. IC50 values were calculated using nonlinear regression and defined as the concentration needed for a 50% reduction in absorbance of treated versus untreated control cells.
By using the above procedure, the compounds of the invention were tested on A549 Cell line and the results obtained are presented below in table 4, Refer FIG. 1.

[2] = Log P (Table 3); format: physicochemical; conditions: no method given
[3] = test system: MCF-7 Cell line; experiment: MTT cell proliferation assay, MCF-7 Cell line; format: cell-based; conditions: Homo sapiens, MCF7, 72 h, MTT; for viability at 0.01 µM: MCF-7, 0.01 μM; for viability at 0.1 µM: MCF-7, 0.1 μM; for viability at 2.5 µM: MCF-7, 2.5 μM; for viability at 5 µM: MCF-7, 5 μM; for viability at 10 µM: MCF-7, 10 μM
Method: as §1
Table 4 indicates anticancer activity against A549 Cell line. The Gefitinib was used as standard and % cell Viable was measured compared to control. The procedure used was MTT assay as mentioned. […] By using the above procedure, the compounds of the invention were tested on MCF-7 Cell line and the results obtained are presented below in table 5, Refer FIG. 2.

[4] = test system: MDA-MB-436 Cell line; experiment: MTT cell proliferation assay, MDA-MB-436 Cell line; format: cell-based; conditions: Homo sapiens, 72 h, MTT; for viability at 0.01 µM: MDA-MB-436, 0.01 μM; for viability at 0.1 µM: MDA-MB-436, 0.1 μM; for viability at 2.5 µM: MDA-MB-436, 2.5 μM; for viability at 5 µM: MDA-MB-436, 5 μM; for viability at 10 µM: MDA-MB-436, 10 μM
Method: as §1
By using the above procedure, the compounds of the invention were tested on MDA-MB-436 Cell line and the results obtained are presented below in table 7, Refer FIG. 4.

[5] = test system: U87MG Cell line (Glioblastoma cell line); experiment: MTT cell proliferation assay, U87MG Cell line; format: cell-based; conditions: Homo sapiens, U-87 MG, U87MG, 72 h, MTT
Method: as §1
By using the above procedure, the compounds of the invention were tested on U87MG Cell line (glioblastoma cell line) and the results obtained are presented below in table 8, Refer FIG. 5.

[6] = test system: HOP-62 Cell line; experiment: MTT cell proliferation assay, HOP-62 Cell line; format: cell-based; conditions: Homo sapiens, 72 h, MTT; for viability at 0.01 µM: HOP-62, 0.01 μM; for viability at 0.1 µM: HOP-62, 0.1 μM; for viability at 2.5 µM: HOP-62, 2.5 μM; for viability at 5 µM: HOP-62, 5 μM; for viability at 10 µM: HOP-62, 10 μM
Method: as §1
By using the above procedure, the compounds of the invention were tested on HOP-62 Cell line and the results obtained are presented below in table 6, Refer FIG. 3.

melting point	logP [2]	Structure (SMILES)	viability at 0.01 µM [1]	viability at 0.1 µM [1]	viability at 2.5 µM [1]	viability at 5 µM [1]	viability at 10 µM [1]	viability at 0.01 µM [3]	viability at 0.1 µM [3]	viability at 2.5 µM [3]	viability at 5 µM [3]	viability at 10 µM [3]	viability at 0.01 µM [4]	viability at 0.1 µM [4]	viability at 2.5 µM [4]	viability at 5 µM [4]	viability at 10 µM [4]	viability at 0.01 µM [5]	viability at 0.1 µM [5]	viability at 2.5 µM [5]	also measured
218 to 220 °C	2.11	Cc1cc(C)c(Nc2nc(N)c(-c3nc4ccccc4[nH]3)s2)c(C)c1 [Molecule S4-M6, 5-(1H-benzo[d]imidazol-2-yl)-N^2-mesitylthiazole-2,4-diamine]	92.3%	85.1%	72%	61%	50%	112%	100%	101%	100%	100%	116%	112%	110%	105%	101%	91.3%	82.1%	70%	viability at 5 µM [5]: 59%; viability at 10 µM [5]: 42.4%; viability at 0.01 µM [6]: 103%; viability at 0.1 µM [6]: 100%; viability at 2.5 µM [6]: 100%; viability at 5 µM [6]: 100%; viability at 10 µM [6]: 91%
200 to 202 °C	3.2	Nc1nc(Nc2ccc(Br)cc2F)sc1-c1nc2ccccc2[nH]1 [Molecule S4-M7, 5-(1H-benzo[d]imidazol-2-yl)-N^2-(4-bromo-2-fluorophenyl)thiazole-2,4-diamine]	97.1%	90.9%	81.8%	71.8%	62.8%	100%	101%	101%	101%	101%	100%	99.9%	101%	93.8%	91.8%	98.1%	94.9%	93.8%	viability at 5 µM [5]: 90.8%; viability at 10 µM [5]: 85.8%; viability at 0.01 µM [6]: 102%; viability at 0.1 µM [6]: 101%; viability at 2.5 µM [6]: 100%; viability at 5 µM [6]: 100%; viability at 10 µM [6]: 90.9%
